Measurements reported in ChEMBL document CHEMBL1133395, “Novel oximes having 5-benzyl-2,4-thiazolidinedione as antihyperglycemic agents: synthesis and structure-activity relationship” (Bioorg Med Chem Lett, 2000).

Legend:
[1] = target: T1, Peroxisome proliferator-activated receptor gamma (Homo sapiens, UniProt P37231)
T1 sequence (P37231 whole entry): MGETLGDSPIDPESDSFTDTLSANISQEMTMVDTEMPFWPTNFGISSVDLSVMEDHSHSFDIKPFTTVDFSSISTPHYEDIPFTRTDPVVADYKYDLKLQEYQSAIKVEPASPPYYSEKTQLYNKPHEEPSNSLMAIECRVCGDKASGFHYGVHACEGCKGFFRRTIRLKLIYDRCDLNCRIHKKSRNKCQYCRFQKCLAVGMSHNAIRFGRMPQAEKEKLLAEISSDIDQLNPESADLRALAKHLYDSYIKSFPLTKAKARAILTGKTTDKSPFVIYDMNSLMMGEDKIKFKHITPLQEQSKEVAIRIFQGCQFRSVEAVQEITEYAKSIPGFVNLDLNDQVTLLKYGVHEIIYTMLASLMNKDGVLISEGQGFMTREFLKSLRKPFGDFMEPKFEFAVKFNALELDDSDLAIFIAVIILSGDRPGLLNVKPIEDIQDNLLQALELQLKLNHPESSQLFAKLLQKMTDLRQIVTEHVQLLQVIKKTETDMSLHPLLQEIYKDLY
Description: Peroxisome proliferator activated receptor gamma agonistic activity in HepG2 cells.

Mus musculus = species on record: Mus musculus; assay: Blood glucose lowering activity in hyperglycemic kk mice.; format: functional; set-up: concentration or dose not given beside the values

SMILES	EC50 [1] [nM]	Change (Mus musculus) [%]
CC/C(=N\OCCOc1ccc(CC2SC(=O)NC2=O)cc1)c1ccc(-c2ccccc2)cc1 (stereo not drawn)	1600	67
C/C(=N\OCCOc1ccc(CC2SC(=O)NC2=O)cc1)c1ccc(-c2ccncc2)cc1 (stereo not drawn)	1600	44
CCC/C(=N\OCCOc1ccc(CC2SC(=O)NC2=O)cc1)c1ccc(-c2ccccc2)cc1 (stereo not drawn)	> 100000	29
C/C(=N\OCCOc1ccc(CC2SC(=O)NC2=O)cc1)c1ccccc1-c1ccccc1 (stereo not drawn)	> 100000	23
C/C(=N\OCCOc1ccc(CC2SC(=O)NC2=O)cc1)c1ccc(-c2ccccc2)nc1 (stereo not drawn)		58
C/C(=N\OCCOc1ccc(CC2SC(=O)NC2=O)cc1)c1ccc(-c2ccccc2)cn1 (stereo not drawn)	1100	61
C/C(=N\OCCCOc1ccc(CC2SC(=O)NC2=O)cc1)c1ccc(-c2ccccc2)cc1 (stereo not drawn)	> 100000	20
C/C(=N\OCCOc1ccc(CC2SC(=O)NC2=O)cc1)c1ccc(-c2ccccc2)cc1 (stereo not drawn)	400	67
C/C(=N\OCCOc1ccc(CC2SC(=O)NC2=O)cc1)c1ccccn1 (stereo not drawn)	2800	67
C/C(=N\OCCOc1ccc(CC2SC(=O)NC2=O)cc1)c1ccncc1 (stereo not drawn)	7900	48
C/C(=N\OCCOc1ccc(CC2SC(=O)NC2=O)cc1)c1cccc(-c2ccccc2)c1 (stereo not drawn)	330	42
C/C(=N\OCCOc1ccc(CC2SC(=O)NC2=O)cc1)c1ccc(-c2cccnc2)cc1 (stereo not drawn)	800	42
C/C(=N\OCCOc1ccc(CC2SC(=O)NC2=O)cc1)c1ccc(-c2ccccn2)cc1 (stereo not drawn)	640	58
O=C1NC(=O)C(Cc2ccc(OCCO/N=C/c3ccc(-c4ccccc4)cc3)cc2)S1 (stereo not drawn)	> 100000	7
C/C(=N\OCCOc1ccc(CC2SC(=O)NC2=O)cc1)c1ccccc1 (stereo not drawn)	1700	57
C/C(=N\OCCOc1ccc(CC2SC(=O)NC2=O)cc1)c1cccnc1 (stereo not drawn)	2800	43
CCc1ccc(CCOc2ccc(CC3SC(=O)NC3=O)cc2)nc1.Cl (stereo not drawn) [PIOGLITAZONE HYDROCHLORIDE]		42
CN(CCOc1ccc(CC2SC(=O)NC2=O)cc1)c1ccccn1.O=C(O)/C=C\C(=O)O (stereo not drawn) [ROSIGLITAZONE MALEATE]		66
